Drawing on patent US20220235065A1 (Epizyme, Inc., priority 2016, published 2022), this text covers IC50 for 21 compounds.

Some results are limits rather than exact numbers.

For orientation: IC50 means the concentration that inhibits the measured activity by half.

For the assay, the target named is T1, recombinant purified human EHMT2 913-1193 (Homo sapiens, UniProt Q96KQ7).
T1 construct: Recombinant purified human EHMT2 913-1193 (55 μM) synthesized by Viva was used for all experiments; purchased Viva
T1 sequence (Q96KQ7 913-1193): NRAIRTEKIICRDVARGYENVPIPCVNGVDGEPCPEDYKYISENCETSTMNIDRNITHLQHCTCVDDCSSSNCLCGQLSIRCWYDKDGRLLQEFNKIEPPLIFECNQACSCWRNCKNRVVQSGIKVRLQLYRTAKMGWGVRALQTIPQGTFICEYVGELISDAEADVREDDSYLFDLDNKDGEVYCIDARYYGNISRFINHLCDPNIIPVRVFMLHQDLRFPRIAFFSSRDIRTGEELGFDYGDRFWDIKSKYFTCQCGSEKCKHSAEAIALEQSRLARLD
Put plainly: EHMT2 enzyme assay on histone peptide substrate (3H-SAM Flashplate). It is filed as biochemical. The note with it: read-out: EHMT2 PEP (IC50 μM). In short, it runs like this:
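Compounds (10-point 3-fold series, top 50 μM final, 2% DMSO) preincubated 30 min with 0.031 nM EHMT2 in 20 mM Bicine pH 7.5, 1 mM TCEP; reaction started with 3H-SAM and biotinylated H3 1-15 peptide, both at Km, run 60 min at room temperature. Flashplate capture; IC50 from four-parameter fit, triplicates.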
Consider `CNc1cc(C)nc(Nc2cnc(C)c(-c3cc4ccncc4[nH]3)c2)n1` [Compound 311], for which the IC50 was above 10 µM.

Take `CNCc1ccnc(-c2cc(Nc3nc(C)cc(NC)n3)ccc2OC)c1` [Compound 313]: the IC50 is 0.1 to 1 µM. Next, `CNC1=Nc2cc(-n3cc(CN4CCC4)cn3)c(OC)cc2C12CCC2` [Compound 314]: below 0.1 µM; `CNc1cc(C)nc(Nc2ccc(F)c(-n3cc(CN4CCC4)cn3)c2F)n1` [Compound 315]: 0.1 to 1 µM; `CNc1cc(C)nc(Nc2ccc(OC)c(-c3[nH]c4cnccc4c3CNC(C)=O)c2)n1` [Compound 316]: below 0.1 µM. Next, `CNCc1cnn(-c2c(OC)ccc(Nc3nc(C)cc(NC)n3)c2F)c1` [Compound 317, N2-(2-fluoro-4-methoxy-3-(4-((methylamino)methyl)-1H-pyrazol-1-yl)phenyl)-N4,6-dimethylpyrimidine-2,4-diamine]: below 0.1 µM; `CNCc1cnn(-c2c(F)ccc(Nc3nc(C)cc(NC)n3)c2OC)c1` [Compound 318]: 0.1 to 1 µM; `CNCc1cnn(-c2cc(Nc3nc(C)cc(NC)n3)ccc2Br)c1` [Compound 319]: below 0.1 µM. In the case of `CCc1ccc(Nc2nc(C)cc(NC)n2)cc1-n1cc(CNC)cn1` [Compound 320], the IC50 is below 0.1 µM. With `CNc1cc(C)nc(Nc2ccc(OC)c(-n3cc(C4CCCN4)cn3)c2)n1` (stereo not drawn) [Compound 321] the figure was below 0.1 µM; with `CNC1=Nc2cc(-n3cc(C4CCCN4)cn3)c(OC)cc2C12CCC2` (stereo not drawn) [Compound 322], below 0.1 µM; with `CNCc1cn(-c2cc(Nc3nc(C)cc(NC)n3)ccc2OC)nc1F` [Compound 323], below 0.1 µM. Next, `CNCc1cc(-c2cc(Nc3nc(C)cc(NC)n3)ccc2OC)on1` [Compound 324]: 0.1 to 1 µM.

As for `CNCc1cnn(-c2cc(Nc3nc(C)cc(NC)n3)ccc2C(F)(F)F)c1` [Compound 325], the IC50 is below 0.1 µM. Next, `CNC1=Nc2cc(-n3cc(C4CCCN4)cn3)c(Cl)cc2C12CCC2` (stereo not drawn) [Compound 326]: below 0.1 µM; `CNCc1cnn(-c2c(Cl)ccc(Nc3nc(C)cc(NC)n3)c2Cl)c1` [Compound 327]: below 0.1 µM. On to `CNCc1cnn(-c2c(Cl)ccc(Nc3nc(C)cc(NC)n3)c2F)c1` [Compound 328], for which the IC50 is below 0.1 µM. Next, `CNCc1cnn(-c2c(F)ccc(Nc3nc(C)cc(NC)n3)c2Cl)c1` [Compound 329]: below 0.1 µM.

In the case of `CNc1cc(C)nc(Nc2ccc(Cl)c(-n3cc(C4CCCN4)cn3)c2)n1` (stereo not drawn) [Compound 330], the IC50 is below 0.1 µM.

Regarding `CNCc1cc(-c2cc(Nc3nc(C)cc(NC)n3)ccc2OC)no1` [Compound 331], the IC50 is below 0.1 µM.

Turning to `CNc1cc(C)nc(Nc2ccc(OC)c(-c3cc4[nH]cc(C)c4cn3)c2)n1` [Compound 386], the concentration for half-maximal inhibition (IC50) is below 0.1 µM.
